The values below come from US12157717B2, “Compounds for the treatment of bovine or swine respiratory disease” (Intervet Inc., priority 2018, dated 2024).

Assay type in all cases: cell-based
Assay [1] has as its system Mannheimia haemolytica MH 6357 (M7/2). In words: MIC, broth-microdilution (CLSI), strain MH 6357. The settings on record: Mannheimia haemolytica M7/2, reference strain (cattle infection strain). The method, then:
(§1) The Minimum inhibitory concentrations (MIC) of compounds according to the invention for a number of veterinary bacterial pathogens were determined by the broth-microdilution method according to CLSI document VETO 1-A4.
(§2) Microdilution trays containing a doubling dilution series of the test compound were used for the tests. The MIC results were interpreted according to the CLSI documents VET01-S3. The lowest concentration of compound at which no visible growth (i.e. no turbidity) detected by the unaided eye was recorded as the MIC.
In general terms: Dilution methods test growth across graded concentrations, often in twofold steps.

Assay [2] deals with Mannheimia haemolytica MH 6374 (ATCC 33396). In words: MIC, broth-microdilution (CLSI), strain MH 6374. The settings on record: Mannheimia haemolytica ATCC 33396, reference strain. The method, then:
as §1, §2

The subject of assay [3] is Mannheimia haemolytica MH 10720 (154). Briefly: MIC, broth-microdilution (CLSI), strain MH 10720. The conditions noted are these: Mannheimia haemolytica 154, BRD field isolate. The method, then: as §1, §2
The test system of assay [4] is Mannheimia haemolytica MH 12587 (1071), macrolide-resistance: erm+, E+. Briefly: MIC, broth-microdilution (CLSI), strain MH 12587. The conditions noted are these: Mannheimia haemolytica 1071, BRD field isolate. The method, then: as §1, §2
Assay [5] relates to Mannheimia haemolytica MH 13065 (XB0446-6003.9). Briefly: MIC, broth-microdilution (CLSI), strain MH 13065. The conditions noted are these: Mannheimia haemolytica XB0446-6003.9, BRD field isolate. The method, then:
as §1, §2

Assay [6] relates to Mannheimia haemolytica MH 13093 (XB0472-6014.1). Briefly: MIC, broth-microdilution (CLSI), strain MH 13093. The settings on record: Mannheimia haemolytica XB0472-6014.1, BRD field isolate. How it is done:
as §1, §2

For assay [7], the system named is Pasteurella multocida PM 6267 (P 2225 (L386)). Briefly: MIC, broth-microdilution (CLSI), strain PM 6267. The conditions noted are these: Pasteurella multocida P 2225 (L386), reference strain (mouse infection strain). The method, then: as §1, §2
The test system of assay [8] is Pasteurella multocida PM 6391 (ATCC 43137). Briefly: MIC, broth-microdilution (CLSI), strain PM 6391. The settings on record: Pasteurella multocida ATCC 43137, reference strain. How it is done:
as §1, §2

Assay [9] concerns Pasteurella multocida PM 10775 (080130003051). In words: MIC, broth-microdilution (CLSI), strain PM 10775. The conditions noted are these: Pasteurella multocida 080130003051, BRD field isolate. The method, then:
as §1, §2

For assay [10], the system named is Pasteurella multocida PM 12080 (IV102277-0093). Briefly: MIC, broth-microdilution (CLSI), strain PM 12080. The settings on record: Pasteurella multocida IV102277-0093, BRD field isolate. The method, then:
as §1, §2

Structures are written as SMILES. Converted amounts (≈) assume the structure as drawn. Bounds are passed on as bounds.

In the case of `CCCNCc1ccc(C#Cc2ccc(C(=O)NC(C(=O)NC)C(=O)NO)cc2)cc1` (stereo not shown) [Compound 10], the “MIC MH 6357” value in assay [1] was found to be 3.1 µM (≈ 1.31 µg/mL). The “MIC MH 6374” value in assay [2] was found to be 6.3 µM (≈ 2.66 µg/mL). The “MIC MH 10720” value in assay [3] worked out at 1.6 µM (≈ 0.676 µg/mL). Also, in [4], the “MIC MH 12587” value was 12.5 µM (≈ 5.28 µg/mL). Moreover, in assay [5], the “MIC MH 13065” value stood at 3.1 µM (≈ 1.31 µg/mL). Besides, in [6], the “MIC MH 13093” value stood at 1.6 µM (≈ 0.676 µg/mL). For the same molecule, in assay [7], the “MIC PM 6267” value was 0.8 µM (≈ 0.338 µg/mL). Moreover, in assay [8], the “MIC PM 6391” value is 0.8 µM (≈ 0.338 µg/mL). Also, the “MIC PM 10775” value in [9] stood at 0.2 µM (≈ 0.0845 µg/mL). Further, the “MIC PM 12080” value in assay [10] amounted to 0.8 µM (≈ 0.338 µg/mL).

As for `CNC(=O)C(C(=O)NO)N(C)C(=O)c1ccc(C#Cc2ccc(CNCc3ccccn3)cc2)cc1` (stereo not shown) [Compound 28], the “MIC MH 6357” value in assay [1] was 6.3 µM (≈ 3.06 µg/mL). Further, the “MIC MH 6374” value in assay [2] was found to be 3.1 µM (≈ 1.51 µg/mL). In addition, in assay [3], the “MIC MH 10720” value worked out at 1.6 µM (≈ 0.777 µg/mL). Besides, the “MIC MH 12587” value in assay [4] was 12.5 µM (≈ 6.07 µg/mL). Besides, in [5], the “MIC MH 13065” value is 3.1 µM (≈ 1.51 µg/mL). For the same molecule, the “MIC MH 13093” value in [6] was determined as 6.3 µM (≈ 3.06 µg/mL). Further, in assay [7], the “MIC PM 6267” value is at most 0.1 µM. In addition, the “MIC PM 6391” value in [8] was 3.1 µM (≈ 1.51 µg/mL). In addition, the “MIC PM 10775” value in [9] was found to be 0.2 µM (≈ 0.0971 µg/mL). In addition, the “MIC PM 12080” value in assay [10] turned out to be 1.6 µM (≈ 0.777 µg/mL).

`CNC(=O)C(NC(=O)c1ccc(C#Cc2ccc(CNCc3nccs3)cc2)cc1)C(=O)NO` (stereo not shown) [Compound 18]: the “MIC MH 6357” value in assay [1] came to 0.4 µM (≈ 0.191 µg/mL). Moreover, the “MIC MH 6374” value in [2] is 0.4 µM (≈ 0.191 µg/mL). For the same molecule, the “MIC MH 10720” value in [3] was 0.2 µM (≈ 0.0955 µg/mL). Also, the “MIC MH 12587” value in [4] was 0.8 µM (≈ 0.382 µg/mL). The “MIC MH 13065” value in [5] came out at 0.4 µM (≈ 0.191 µg/mL). Besides, in [6], the “MIC MH 13093” value turned out to be 0.4 µM (≈ 0.191 µg/mL). Besides, the “MIC PM 6267” value in assay [7] was at most 0.1 µM. Further, in [8], the “MIC PM 6391” value is at most 0.1 µM. For the same molecule, in [9], the “MIC PM 10775” value was at most 0.1 µM. In assay [10], the “MIC PM 12080” value is at most 0.1 µM.

As to `C#CCNCc1ccc(C#Cc2ccc(C(=O)NC(C(=O)NC)C(=O)NO)cc2)cc1` (stereo not shown) [Compound 20], the “MIC MH 6357” value in assay [1] is 0.2 µM (≈ 0.0837 µg/mL). In addition, in assay [2], the “MIC MH 6374” value is 0.2 µM (≈ 0.0837 µg/mL). In addition, in assay [3], the “MIC MH 10720” value is at most 0.1 µM. Also, the “MIC MH 12587” value in [4] was determined as 0.8 µM (≈ 0.335 µg/mL). Further, the “MIC MH 13065” value in [5] turned out to be 0.2 µM (≈ 0.0837 µg/mL). Also, the “MIC MH 13093” value in [6] is 0.4 µM (≈ 0.167 µg/mL). Besides, in assay [7], the “MIC PM 6267” value is at most 0.1 µM. The “MIC PM 6391” value in [8] is at most 0.1 µM. In assay [9], the “MIC PM 10775” value is at most 0.1 µM. The “MIC PM 12080” value in assay [10] was at most 0.1 µM.

As to `CNC(=O)C(NC(=O)c1ccc(C#Cc2ccc(CNCc3cccs3)cc2)cc1)C(=O)NO` (stereo not shown) [Compound 15], in assay [1], the “MIC MH 6357” value was 0.2 µM (≈ 0.0953 µg/mL). Also, the “MIC MH 6374” value in assay [2] was found to be 0.2 µM (≈ 0.0953 µg/mL). The “MIC MH 10720” value in assay [3] was at most 0.1 µM. Further, the “MIC MH 12587” value in [4] amounted to 0.8 µM (≈ 0.381 µg/mL). Besides, in assay [5], the “MIC MH 13065” value is 0.2 µM (≈ 0.0953 µg/mL). Also, the “MIC MH 13093” value in assay [6] was 0.2 µM (≈ 0.0953 µg/mL). Also, in [7], the “MIC PM 6267” value was at most 0.1 µM. For the same molecule, the “MIC PM 6391” value in assay [8] was at most 0.1 µM. Besides, the “MIC PM 10775” value in assay [9] is at most 0.1 µM. In addition, the “MIC PM 12080” value in assay [10] was at most 0.1 µM.

For the molecule `CNC(=O)C(C(=O)NO)N(C)C(=O)c1ccc(C#Cc2ccc(CNC3CCCC3)cc2)cc1` (stereo not shown) [Compound 26], the “MIC MH 6357” value in [1] was 6.3 µM (≈ 2.91 µg/mL). The “MIC MH 6374” value in assay [2] amounted to 12.5 µM (≈ 5.78 µg/mL). The “MIC MH 10720” value in [3] was 3.1 µM (≈ 1.43 µg/mL). The “MIC MH 12587” value in assay [4] was found to be 25 µM (≈ 11.6 µg/mL). Besides, the “MIC MH 13065” value in assay [5] came to 12.5 µM (≈ 5.78 µg/mL). The “MIC MH 13093” value in assay [6] came to 25 µM (≈ 11.6 µg/mL). Moreover, the “MIC PM 6267” value in [7] came to 0.8 µM (≈ 0.37 µg/mL). Also, the “MIC PM 6391” value in [8] was 1.6 µM (≈ 0.74 µg/mL). In assay [9], the “MIC PM 10775” value was 0.4 µM (≈ 0.185 µg/mL). Further, the “MIC PM 12080” value in [10] worked out at 1.6 µM (≈ 0.74 µg/mL).

On to `CCCNCc1ccc(C#Cc2ccc(C(=O)N(C)C(C(=O)NC)C(=O)NO)cc2)cc1` (stereo not shown) [Compound 27], for which, in [1], the “MIC MH 6357” value is 6.3 µM (≈ 2.75 µg/mL). The “MIC MH 6374” value in [2] was found to be 6.3 µM (≈ 2.75 µg/mL). Besides, the “MIC MH 10720” value in assay [3] was determined as 1.6 µM (≈ 0.698 µg/mL). The “MIC MH 12587” value in assay [4] worked out at 12.5 µM (≈ 5.46 µg/mL). For the same molecule, the “MIC MH 13065” value in [5] worked out at 6.3 µM (≈ 2.75 µg/mL). Also, in assay [6], the “MIC MH 13093” value was 12.5 µM (≈ 5.46 µg/mL). The “MIC PM 6267” value in assay [7] was 0.2 µM (≈ 0.0873 µg/mL). The “MIC PM 6391” value in assay [8] stood at 3.1 µM (≈ 1.35 µg/mL). Also, the “MIC PM 10775” value in [9] came to 0.4 µM (≈ 0.175 µg/mL). Besides, the “MIC PM 12080” value in [10] turned out to be 1.6 µM (≈ 0.698 µg/mL).
